Results reported in ChEMBL document CHEMBL4219169, “Sulfoximines as potent RORγ inverse agonists” (Bioorg Med Chem Lett, 2018).

Columns and labels:
TK6 [1] = test: Genotoxicity in human-derived p53-competent TK6 cells expressing GADD45a-dependent green fluorescent protein assessed as decrease in cell viability after 48 hrs in absence of Sprague-Dawley rat S9 fraction by FACS analysis; assay type: toxicity, cell-based; details: tk6, 48 h
[2] = target: T1, Peroxisome proliferator-activated receptor gamma (Homo sapiens, UniProt P37231)
T1 sequence (P37231 whole entry): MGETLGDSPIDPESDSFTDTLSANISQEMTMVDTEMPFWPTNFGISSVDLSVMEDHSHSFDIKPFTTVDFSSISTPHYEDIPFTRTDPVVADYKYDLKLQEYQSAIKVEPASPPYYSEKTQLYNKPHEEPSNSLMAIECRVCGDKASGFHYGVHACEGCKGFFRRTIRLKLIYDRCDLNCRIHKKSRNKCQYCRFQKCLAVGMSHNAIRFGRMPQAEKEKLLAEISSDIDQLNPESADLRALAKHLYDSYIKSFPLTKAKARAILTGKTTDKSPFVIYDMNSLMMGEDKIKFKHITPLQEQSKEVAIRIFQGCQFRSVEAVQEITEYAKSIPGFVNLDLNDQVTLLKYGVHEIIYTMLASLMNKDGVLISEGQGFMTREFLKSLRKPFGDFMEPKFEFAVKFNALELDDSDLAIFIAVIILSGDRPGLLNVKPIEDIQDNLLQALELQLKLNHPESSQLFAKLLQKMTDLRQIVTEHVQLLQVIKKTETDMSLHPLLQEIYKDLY
Description: Activity at PPARgamma (unknown origin) expressed in human HeLa-derived HG5LN cells transfected with the GAL4 DNA-binding domain fused to the PPARgamma ligand-binding domain assessed as inhibition of transcriptional activity after 18 hrs by luminescence-based luciferase reporter gene assay

TK6 [3] = test: Genotoxicity in human TK6 cells incubated for 3 hrs in absence of aroclor-1254-induced rat S9 fraction followed by 27 hrs recovery period by Giemsa staining dependent optical microscopy based micronucleus test; assay type: toxicity, cell-based; details: tk6, 3 h
[4] = target: T2, Retinoic acid receptor gamma (Homo sapiens, UniProt P13631); test: (§1) Inverse agonist activity at RARgamma (unknown origin) expressed in human HeLa-derived HG5LN cells transfected with the GAL4 DNA-binding domain fused to the RARgamma ligand-binding domain assessed as inhibition of transcriptional activity after 18 hrs by luminescence-based luciferase reporter gene assay; assay type: cell-based
T2 sequence (P13631 whole entry): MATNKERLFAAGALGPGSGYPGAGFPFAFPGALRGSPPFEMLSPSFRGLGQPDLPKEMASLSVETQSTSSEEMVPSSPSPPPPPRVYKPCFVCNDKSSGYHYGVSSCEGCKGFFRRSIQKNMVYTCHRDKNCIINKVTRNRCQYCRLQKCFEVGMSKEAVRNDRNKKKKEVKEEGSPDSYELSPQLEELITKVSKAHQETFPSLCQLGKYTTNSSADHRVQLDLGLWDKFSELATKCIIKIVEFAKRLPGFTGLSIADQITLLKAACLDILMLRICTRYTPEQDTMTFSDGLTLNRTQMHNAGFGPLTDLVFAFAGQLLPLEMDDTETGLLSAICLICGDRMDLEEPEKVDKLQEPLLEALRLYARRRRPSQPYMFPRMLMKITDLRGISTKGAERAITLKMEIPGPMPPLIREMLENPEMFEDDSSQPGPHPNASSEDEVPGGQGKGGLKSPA

[5] = Stability of the compound in PG/EtOH96 (3/7) solution at 40 degC after 1 month by HPLC analysis; assay type: physicochemical; details: read-out: Stability
Salmonella typhimurium [6] = test: Genotoxicity in Salmonella typhimurium TA98 in absence of aroclor-1254-induced rat S9 fraction by Ames test; assay type: toxicity, organism-based; details: salmonella enterica subsp. enterica serovar typhimurium
[7] = target: T3, Oxysterols receptor LXR-beta (Homo sapiens, UniProt P55055)
T3 sequence (P55055 whole entry): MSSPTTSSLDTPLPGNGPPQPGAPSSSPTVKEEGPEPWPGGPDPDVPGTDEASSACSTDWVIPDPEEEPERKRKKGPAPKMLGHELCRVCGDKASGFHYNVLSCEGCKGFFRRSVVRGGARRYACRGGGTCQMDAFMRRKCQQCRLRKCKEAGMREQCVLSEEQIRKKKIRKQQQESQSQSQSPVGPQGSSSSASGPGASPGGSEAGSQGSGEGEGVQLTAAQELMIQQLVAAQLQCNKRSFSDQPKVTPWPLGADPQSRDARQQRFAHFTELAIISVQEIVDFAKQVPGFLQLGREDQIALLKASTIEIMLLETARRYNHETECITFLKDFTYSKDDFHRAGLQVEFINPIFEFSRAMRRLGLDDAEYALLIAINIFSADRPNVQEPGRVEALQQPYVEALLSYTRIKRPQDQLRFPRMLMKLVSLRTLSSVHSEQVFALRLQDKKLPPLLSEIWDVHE
Description: Activity at LXRbeta (unknown origin) expressed in human HeLa-derived HG5LN cells transfected with the GAL4 DNA-binding domain fused to the LXRbeta ligand-binding domain assessed as inhibition of transcriptional activity after 18 hrs by luminescence-based luciferase reporter gene assay

[8] = target: T4, Nuclear receptor ROR-alpha (Homo sapiens, UniProt P35398); test: as §1, with “RORalpha” for “RARgamma”; assay type: cell-based
T4 sequence (P35398 whole entry): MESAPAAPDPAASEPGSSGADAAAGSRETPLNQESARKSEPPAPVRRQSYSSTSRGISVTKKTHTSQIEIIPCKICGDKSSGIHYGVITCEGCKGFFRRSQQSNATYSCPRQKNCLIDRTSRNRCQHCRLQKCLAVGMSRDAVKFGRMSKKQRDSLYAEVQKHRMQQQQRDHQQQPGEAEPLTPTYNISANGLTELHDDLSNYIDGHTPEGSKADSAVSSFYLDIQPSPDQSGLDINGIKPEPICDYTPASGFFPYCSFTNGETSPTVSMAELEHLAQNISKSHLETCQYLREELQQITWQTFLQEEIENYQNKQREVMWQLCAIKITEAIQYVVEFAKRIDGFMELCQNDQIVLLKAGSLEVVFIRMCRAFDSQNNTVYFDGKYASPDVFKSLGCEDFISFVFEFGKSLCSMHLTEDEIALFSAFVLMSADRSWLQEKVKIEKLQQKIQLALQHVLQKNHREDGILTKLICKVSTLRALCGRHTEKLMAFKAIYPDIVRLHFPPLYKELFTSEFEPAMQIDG

Salmonella typhimurium [9] = test: Genotoxicity in Salmonella typhimurium TA100 in absence of aroclor-1254-induced rat S9 fraction by Ames test; assay type: toxicity, organism-based; details: salmonella enterica subsp. enterica serovar typhimurium
Mus musculus = test: In vivo inverse agonist activity at RORgamma in wild type BALB/c ByJ Rj mouse model of imiquimod-induced skin inflammation model assessed as attenuation of imiquimod-induced epidermal hyperplasia at 6% administered topically twice daily for 7 days dosed 2 hrs before and 6 hrs after imiquimod administration measured on day 8 by hematoxylin and eosin staining-based histological analysis; assay type: functional
Vitamin D3 receptor = target: T5, Vitamin D3 receptor (Homo sapiens, UniProt P11473)
T5 sequence (P11473 whole entry): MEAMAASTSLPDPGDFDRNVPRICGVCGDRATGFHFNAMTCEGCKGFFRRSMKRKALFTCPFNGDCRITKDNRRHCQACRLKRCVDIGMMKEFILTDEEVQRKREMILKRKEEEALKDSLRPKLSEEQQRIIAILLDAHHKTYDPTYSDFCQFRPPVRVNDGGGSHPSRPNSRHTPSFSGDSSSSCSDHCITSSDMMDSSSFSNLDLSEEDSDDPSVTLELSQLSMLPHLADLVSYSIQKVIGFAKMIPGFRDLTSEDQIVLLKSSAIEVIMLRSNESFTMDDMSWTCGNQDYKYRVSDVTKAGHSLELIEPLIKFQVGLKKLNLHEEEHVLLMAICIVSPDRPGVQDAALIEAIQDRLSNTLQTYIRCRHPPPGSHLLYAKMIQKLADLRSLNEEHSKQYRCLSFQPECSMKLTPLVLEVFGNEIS
Description: Activity at VDR expressed in human HeLa-derived HDLN6 cells assessed as inhibition of transcriptional activity after 18 hrs by luminescence-based luciferase reporter gene assay

- Kd [2]: > 10 µM
- IC50 [4]: > 10 µM
- remaining at 730.5 h [5]: > 98%
- Kd [7]: > 10 µM
- IC50 [8]: > 10 µM
- Kd (Vitamin D3 receptor): > 10 µM
SMILES: CCc1ccc(N(CC(C)C)S(=O)(=O)c2ccc(OCC3CCOCC3)c([S@@](C)(=N)=O)c2)cc1
- Activity (TK6 [1]): Non-Toxic
- Activity (TK6 [3]): Non-Toxic
- Activity (Salmonella typhimurium [6]): Non-Toxic
- Activity (Salmonella typhimurium [9]): Non-Toxic
- Activity (Mus musculus): 63%
